Patent publication US9850283B2, “Macrocyclic inhibitors of the PD-1/PD-L1 and CD80(B7-1)/PD-L1 protein/protein interactions” (BRISTOL-MYERS SQUIBB COMPANY, priority 2013, dated 2017)
Where two headings read alike, the source gives them in different places. Positions of bridges follow the written chain, without caps; N, C: chain ends. Non-standard residues stand in square brackets, D forms with d. Residues, ends and D or L forms follow the SMILES beside them. Tyr(3,5-Br2) = N[C@@H](Cc1cc(Br)c(O)c(Br)c1)C(=O)O; 1Nal = N[C@@H](Cc1cccc2ccccc12)C(=O)O; Bta = N[C@@H](Cc1csc2ccccc12)C(=O)O; Hyp = O=C(O)[C@@H]1C[C@@H](O)CN1; NMeF = CN[C@@H](Cc1ccccc1)C(=O)O; NMeNle = CCCC[C@H](NC)C(=O)O; NMeA = CN[C@@H](C)C(=O)O; Dab = NCC[C@H](N)C(=O)O; Sar = CNCC(=O)O

Columns and labels:
Human PD-L1/PD-1 = target: T1, Human PD-L1/PD-1 (Homo sapiens, UniProt Q9NZQ7); experiment: HTRF PD-1-Ig/PD-L1-His binding assay (human PD-L1); conditions: cluster symbol; read-out: HTRF IC50 cluster
T1 construct: made in house; host or cells: HEK293T
Outline: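 Interaction of Fc-tagged soluble PD-1 with His-tagged soluble PD-L1 is monitored by time-resolved FRET. Donor is europium cryptate anti-Ig (1 nM final) and acceptor is APC anti-His (20 nM final). Assay buffer is dPBS with 0.1% BSA and 0.05% Tween-20.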

[1] = target: T2, LK35.2-hPD-L1 cells / PE-labeled PD-1-Ig (Homo sapiens, UniProt Q9NZQ7); experiment: LK35.2-hPD-L1 cell binding high-content screening assay; format: cell-based; conditions: cluster symbol, read-out: CBA IC50 cluster
T2 construct: expressed in transfected cells; host or cells: LK35.2 mouse B cell line
Outline: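 Readout: high-content imaging of PE-PD-1-Ig bound to LK35.2-hPD-L1 cells. Cells plated overnight (RPMI/10% FCS); compound + 1 nM PE-PD-1-Ig, 1 h, 37 °C; 3× dPBS wash before imaging.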

[2] = cell binding assay, cell line not given
[3] = cell line of CBA not given (LK35.2-hPD-L1 or 293T-hPD-L1)

T1 sequence (Q9NZQ7 with tags, fused parts or gaps): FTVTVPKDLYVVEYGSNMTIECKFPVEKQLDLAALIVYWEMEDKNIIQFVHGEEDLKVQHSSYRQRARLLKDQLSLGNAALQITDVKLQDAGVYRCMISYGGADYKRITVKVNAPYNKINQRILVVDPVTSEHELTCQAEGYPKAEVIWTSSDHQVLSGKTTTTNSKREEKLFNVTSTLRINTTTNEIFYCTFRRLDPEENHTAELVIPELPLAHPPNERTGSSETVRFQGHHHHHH
T2 sequence (Q9NZQ7 19-290): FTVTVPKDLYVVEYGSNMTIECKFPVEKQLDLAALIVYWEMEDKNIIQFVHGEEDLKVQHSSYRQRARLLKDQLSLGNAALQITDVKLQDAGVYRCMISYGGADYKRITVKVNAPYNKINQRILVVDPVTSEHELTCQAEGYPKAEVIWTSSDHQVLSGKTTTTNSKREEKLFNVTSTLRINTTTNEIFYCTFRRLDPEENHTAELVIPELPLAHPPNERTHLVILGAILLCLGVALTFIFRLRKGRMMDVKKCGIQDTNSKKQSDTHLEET

Row | IC50 (Human PD-L1/PD-1) [nM] | IC50 [1, 2] [nM] | IC50 [1, 3] [nM] | SMILES
1 | > 30.5 | > 74.3 | – | CCCC[C@H]1C(=O)N(C)[C@@H](CCCC)C(=O)N[C@@H](CCN)C(=O)N[C@H](C(=O)NCC(N)=O)CSCC(=O)N[C@@H](Cc2ccc(O)cc2)C(=O)N(C)[C@@H](C)C(=O)N[C@@H](CC(N)=O)C(=O)N2CCC[C@H]2C(=O)N[C@@H](Cc2cnc[nH]2)C(=O)N[C@@H](CCC(N)=O)C(=O)N2C[C@H](O)C[C@H]2C(=O)N[C@@H](Cc2csc3ccccc23)C(=O)N[C@@H](CCN)C(=O)N[C@@H](Cc2c[nH]c3ccccc23)C(=O)N1C [Example 5056] ({CH2CO}-Y[NMeA]NPHQ[Hyp][Bta][Dab]W[NMeNle][NMeNle][Dab]CG-NH2; thioether N-14)
2 | 6.76 to 30.3 | – | > 74.3 | CCCC[C@H]1C(=O)N(C)[C@@H](CCCC)C(=O)N[C@@H](CCCNC(=N)N)C(=O)N[C@H](C(=O)NCC(N)=O)CSCC(=O)N[C@@H](Cc2ccccc2)C(=O)N(C)[C@@H](C)C(=O)N[C@@H](CC(N)=O)C(=O)N2CCC[C@H]2C(=O)N[C@@H](CCCCN)C(=O)N[C@@H](CC(C)C)C(=O)N(C)CC(=O)N[C@@H](Cc2c[nH]c3ccccc23)C(=O)N[C@@H](CO)C(=O)N[C@@H](Cc2c[nH]c3ccccc23)C(=O)N1C [Example 1077] ({CH2CO}-F[NMeA]NPKL[Sar]WSW[NMeNle][NMeNle]RCG-NH2; thioether N-14)
3 | > 30.5 | – | > 74.3 | CCCC[C@H]1C(=O)N(C)CC(=O)N[C@@H](CC(=O)O)C(=O)N[C@@H](C(C)C)C(=O)N(C)[C@@H](Cc2ccccc2)C(=O)N[C@@H](Cc2ccc(O)cc2)C(=O)N(C)CC(=O)N[C@@H](Cc2c[nH]c3ccccc23)C(=O)N[C@@H](Cc2cc(Br)c(O)c(Br)c2)C(=O)N[C@@H](CC(C)C)C(=O)N[C@H](C(=O)NCC(N)=O)CSCC(=O)N[C@@H](Cc2ccccc2)C(=O)N(C)[C@@H](Cc2ccccc2)C(=O)N1C [Example 3112] ({CH2CO}-F[NMeF][NMeNle][Sar]DV[NMeF]Y[Sar]W[Tyr(3,5-Br2)]LCG-NH2; thioether N-13)
4 | 0.385 to 6.74 | 0.158 to 4.71 | – | CCCC[C@H]1C(=O)N(C)[C@@H](CCCC)C(=O)N[C@@H](CCN)C(=O)N[C@H](C(=O)NCC(N)=O)CSCC(=O)N[C@@H](Cc2ccc(O)cc2)C(=O)N(C)[C@@H](C)C(=O)N[C@@H](CC(=O)O)C(=O)N2CCC[C@H]2C(=O)N[C@@H](Cc2cnc[nH]2)C(=O)N[C@@H](CCC(=O)O)C(=O)N2C[C@H](O)C[C@H]2C(=O)N[C@@H](Cc2c[nH]c3ccccc23)C(=O)N[C@@H](CCN)C(=O)N[C@@H](Cc2c[nH]c3ccccc23)C(=O)N1C [Example 5034] ({CH2CO}-Y[NMeA]DPHE[Hyp]W[Dab]W[NMeNle][NMeNle][Dab]CG-NH2; thioether N-14)
5 | 0.385 to 6.74 | 4.78 to 72.9 | – | CCCC[C@H]1C(=O)N(C)[C@@H](CCCC)C(=O)N[C@@H](CC(C)C)C(=O)N[C@H](C(=O)NCC(N)=O)CSCC(=O)N[C@@H](Cc2ccc(O)cc2)C(=O)N(C)[C@@H](C)C(=O)N[C@@H](CC(N)=O)C(=O)N2CCC[C@H]2C(=O)N[C@@H](Cc2c[nH]cn2)C(=O)N[C@@H](CCC(N)=O)C(=O)N2CCC[C@H]2C(=O)N[C@@H](Cc2c[nH]c3ccccc23)C(=O)N[C@@H](CO)C(=O)N[C@@H](Cc2c[nH]c3ccccc23)C(=O)N1C [Example 5079] ({CH2CO}-Y[NMeA]NPHQPWSW[NMeNle][NMeNle]LCG-NH2; thioether N-14)
6 | > 30.5 | > 74.3 | – | CCCC[C@H]1C(=O)N(C)CC(=O)N[C@@H](CC(=O)O)C(=O)N[C@@H](C(C)C)C(=O)N(C)[C@@H](Cc2ccccc2)C(=O)N[C@@H](Cc2ccc(O)cc2)C(=O)N(C)CC(=O)N[C@@H](Cc2c[nH]c3ccccc23)C(=O)N[C@@H](Cc2ccc(O)cc2)C(=O)N[C@@H](CC(C)C)C(=O)N[C@H](C(=O)NCC(N)=O)CSCC(=O)N[C@@H](Cc2ccccc2)C(=O)N[C@@H](Cc2cccc3ccccc23)C(=O)N1C [Example 3569] ({CH2CO}-F[1Nal][NMeNle][Sar]DV[NMeF]Y[Sar]WYLCG-NH2; thioether N-13)
